# Laboratory results published in patent publication US9278962B2 (Cytokinetics, Inc., priority 2011, dated 2016).
# System: rabbit skeletal myofibrils (approximately 90% fast fibers)
# Test: Activation of fast skeletal myofibrils (PUMA coupled-enzyme ATPase assay, AC1.4)
# Assay type: biochemical
# Settings: Table 2; concentration at which the compound increased enzymatic activity by 40%; calcium at pCa25
row,SMILES,Mean AC1.4
1,"NC(=O)c1ccc(F)c(-c2nsc(NC3(c4ncccc4F)CCC3)n2)c1 [4-fluoro-3-(5-{[(3-fluoro(2-pyridyl))cyclobutyl]amino}(1,2,4-thiadiazol-3-yl))benzamide]",D (D=>20 uM)
2,"CC(C)(CNc1nc(-c2ccc(O)nc2)ns1)c1ccc(F)cc1 [5-(5-{[2-(4-fluorophenyl)-2-methylpropyl]amino}-1,2,4-thiadiazol-3-yl)pyridin-2-ol]",B (B=1-10 uM)
3,"CC(C)(CNc1nc(-c2ccc(C(N)=O)nc2)ns1)c1ccc(F)cc1 [5-(5-{[2-(4-fluorophenyl)-2-methylpropyl]amino}-1,2,4-thiadiazol-3-yl)pyridine-2-carboxamide]",A (A=<1 uM)
4,"CC(C)(CNc1nc(-c2cncc(C#N)c2)ns1)c1ccc(F)cc1 [5-(5-{[2-(4-fluorophenyl)-2-methylpropyl]amino}-1,2,4-thiadiazol-3-yl)pyridine-3-carbonitrile]",B (B=1-10 uM)
5,"CC(C)(CNc1nc(-c2cncc(C(N)=O)c2)ns1)c1ccc(F)cc1 [5-(5-{[2-(4-fluorophenyl)-2-methylpropyl]amino}-1,2,4-thiadiazol-3-yl)pyridine-3-carboxamide]",A (A=<1 uM)
6,"C[C@H](CNc1nc(-c2ccc(O)nc2)ns1)c1ccc(F)cc1 [5-(5-{[(2S)-2-(4-fluorophenyl)propyl]amino}-1,2,4-thiadiazol-3-yl)pyridin-2-ol]",B (B=1-10 uM)

# Same assay, conditions: Table 3; concentration at which the compound increased enzymatic activity by 40%; calcium at pCa25
row,SMILES,Mean AC1.4
1,"NC(=O)c1ccc(F)c(-c2nnc(NCC3(c4ncccc4F)CCC3)s2)c1 [4-fluoro-3-(5-((1-(3-fluoropyridin-2-yl)cyclobutyl)methylamino)-1,3,4-thiadiazol-2-yl)benzamide]",A (A=<1 uM)
2,"N#Cc1ccc(F)c(-c2nnc(NCC3(c4ncccc4F)CCC3)s2)c1 [4-fluoro-3-(5-((1-(3-fluoropyridin-2-yl)cyclobutyl)methylamino)-1,3,4-thiadiazol-2-yl)benzonitrile]",B (B=1-10 uM)
3,"NC(=O)c1ccc(F)c(-c2nnc(NC[C@]3(c4ncccc4F)C[C@H](F)C3)s2)c1 [4-fluoro-3-(5-((3-fluoro-1-(3-fluoropyridin-2-yl)cyclobutyl)methylamino)-1,3,4-thiadiazol-2-yl)benzamide]",A (A=<1 uM)
4,"N#Cc1ccc(F)c(-c2nnc(NC[C@]3(c4ncccc4F)C[C@H](F)C3)s2)c1 [4-fluoro-3-(5-((3-fluoro-1-(3-fluoropyridin-2-yl)cyclobutyl)methylamino)-1,3,4-thiadiazol-2-yl)benzonitrile]",B (B=1-10 uM)
5,"Fc1cccnc1C1(CNc2nnc(-c3ccccc3Cl)s2)CCC1 [5-(2-chlorophenyl)-N-((1-(3-fluoropyridin-2-yl)cyclobutyl)methyl)-1,3,4-thiadiazol-2-amine]",A (A=<1 uM)
6,"CC(C)(CNc1nnc(-c2ccc3[nH]nc(N)c3c2)s1)c1ccc(F)cc1 [5-(3-amino-1H-indazol-5-yl)-N-(2-(4-fluorophenyl)-2-methylpropyl)-1,3,4-thiadiazol-2-amine]",A (A=<1 uM)
7,"Fc1cccnc1C1(CNc2nnc(-c3ccc(Br)cc3)s2)CCC1 [5-(4-bromophenyl)-N-((1-(3-fluoropyridin-2-yl)cyclobutyl)methyl)-1,3,4-thiadiazol-2-amine]",B (B=1-10 uM)
8,"Cc1cc(C#N)sc1-c1nnc(NC[C@]2(c3ncccc3F)C[C@H](F)C2)s1 [5-(5-((3-fluoro-1-(3-fluoropyridin-2-yl)cyclobutyl)methylamino)-1,3,4-thiadiazol-2-yl)-4-methylthiophene-2-carbonitrile]",B (B=1-10 uM)
9,"Cc1cc(C(N)=O)sc1-c1nnc(NC[C@]2(c3ncccc3F)C[C@H](F)C2)s1 [5-(5-((3-fluoro-1-(3-fluoropyridin-2-yl)cyclobutyl)methylamino)-1,3,4-thiadiazol-2-yl)-4-methylthiophene-2-carboxamide]",B (B=1-10 uM)
10,"N#Cc1ccc(-c2nnc(NC[C@]3(c4ncccc4F)C[C@H](F)C3)s2)s1 [5-(5-((3-fluoro-1-(3-fluoropyridin-2-yl)cyclobutyl)methylamino)-1,3,4-thiadiazol-2-yl)thiophene-2-carbonitrile]",D (D=>20 uM)
11,"NC(=O)c1ccc(-c2nnc(NC[C@]3(c4ncccc4F)C[C@H](F)C3)s2)s1 [5-(5-((3-fluoro-1-(3-fluoropyridin-2-yl)cyclobutyl)methylamino)-1,3,4-thiadiazol-2-yl)thiophene-2-carboxamide]",B (B=1-10 uM)
12,"Fc1cccnc1[C@]1(CNc2nnc(-c3cc(Br)ccc3Cl)s2)C[C@H](F)C1 [5-(5-bromo-2-chlorophenyl)-N-(((cis)-3-fluoro-1-(3-fluoropyridin-2-yl)cyclobutyl)methyl)-1,3,4-thiadiazol-2-amine]",A (A=<1 uM)
13,"Fc1cccnc1[C@]1(CNc2nnc(-c3cc(Br)ccc3Cl)s2)C[C@@H](F)C1 [5-(5-bromo-2-chlorophenyl)-N-(((trans)-3-fluoro-1-(3-fluoropyridin-2-yl)cyclobutyl)methyl)-1,3,4-thiadiazol-2-amine]",A (A=<1 uM)
14,"CC(C)(CNc1nnc(-c2cc(Br)ccc2F)s1)c1ncccc1F [5-(5-bromo-2-fluorophenyl)-N-(2-(3-fluoropyridin-2-yl)-2-methylpropyl)-1,3,4-thiadiazol-2-amine]",A (A=<1 uM)
15,"CC(C)(Nc1nnc(-c2cc(Br)ccc2F)s1)c1ncccc1F [5-(5-bromo-2-fluorophenyl)-N-(2-(3-fluoropyridin-2-yl)propan-2-yl)-1,3,4-thiadiazol-2-amine]",B (B=1-10 uM)
16,"Fc1ccc(Br)cc1-c1nnc(NCC2(c3ncccc3F)CCC2)s1 [5-(5-bromo-2-fluorophenyl)-N-((1-(3-fluoropyridin-2-yl)cyclobutyl)methyl)-1,3,4-thiadiazol-2-amine]",A (A=<1 uM)
17,"Fc1ccc(Br)cc1-c1nnc(NC[C@]2(c3ncccc3F)C[C@@H](F)C2)s1 [5-(5-bromo-2-fluorophenyl)-N-(((cis)-3-fluoro-1-(3-fluoropyridin-2-yl)cyclobutyl)methyl)-1,3,4-thiadiazol-2-amine]",A (A=<1 uM)
18,"Fc1ccc(Br)cc1-c1nnc(NC[C@]2(c3ncccc3F)C[C@H](F)C2)s1 [5-(5-bromo-2-fluorophenyl)-N-(((trans)-3-fluoro-1-(3-fluoropyridin-2-yl)cyclobutyl)methyl)-1,3,4-thiadiazol-2-amine]",A (A=<1 uM)
19,"Cc1ccc(Br)cc1-c1nnc(NC[C@]2(c3ncccc3F)C[C@@H](F)C2)s1 [5-(5-bromo-2-methylphenyl)-N-(((cis)-3-fluoro-1-(3-fluoropyridin-2-yl)cyclobutyl)methyl)-1,3,4-thiadiazol-2-amine]",A (A=<1 uM)
20,"Cc1ccc(Br)cc1-c1nnc(NC[C@]2(c3ncccc3F)C[C@H](F)C2)s1 [5-(5-bromo-2-methylphenyl)-N-(((trans)-3-fluoro-1-(3-fluoropyridin-2-yl)cyclobutyl)methyl)-1,3,4-thiadiazol-2-amine]",A (A=<1 uM)
21,"Cc1cc(Br)sc1-c1nnc(NC[C@]2(c3ncccc3F)C[C@H](F)C2)s1 [5-(5-bromo-3-methylthiophen-2-yl)-N-((3-fluoro-1-(3-fluoropyridin-2-yl)cyclobutyl)methyl)-1,3,4-thiadiazol-2-amine]",B (B=1-10 uM)
22,"Fc1cccnc1[C@]1(CNc2nnc(-c3ccc(Br)s3)s2)C[C@H](F)C1 [5-(5-bromothiophen-2-yl)-N-(((cis)-3-fluoro-1-(3-fluoropyridin-2-yl)cyclobutyl)methyl)-1,3,4-thiadiazol-2-amine]",C (C=10-20 uM)
23,"Fc1cccnc1[C@]1(CNc2nnc(-c3ccc(Br)s3)s2)C[C@@H](F)C1 [5-(5-bromothiophen-2-yl)-N-(((trans)-3-fluoro-1-(3-fluoropyridin-2-yl)cyclobutyl)methyl)-1,3,4-thiadiazol-2-amine]",B (B=1-10 uM)
24,"CCc1ccc(F)c(-c2nnc(NC[C@]3(c4ncccc4F)C[C@H](F)C3)s2)c1 [5-(5-ethyl-2-fluorophenyl)-N-((3-fluoro-1-(3-fluoropyridin-2-yl)cyclobutyl)methyl)-1,3,4-thiadiazol-2-amine]",A (A=<1 uM)

# Same assay, conditions: Table 5; concentration at which the compound increased enzymatic activity by 40%; calcium at pCa25
row,SMILES,Mean AC1.4
1,"N#Cc1ccc(F)c(-c2nnc(NC3(c4ncccc4F)CCC3)[nH]2)c1 [4-fluoro-3-(5-(1-(3-fluoropyridin-2-yl)cyclobutylamino)-4H-1,2,4-triazol-3-yl)benzonitrile]",D (D=>20 uM)
2,"CC(C)(Nc1nnc(-c2cc(C(N)=O)ccc2F)o1)c1ccc(F)cc1 [4-fluoro-3-(5-(2-(4-fluorophenyl)propan-2-ylamino)-1,3,4-oxadiazol-2-yl)benzamide]",C (C=10-20 uM)
3,"CC(C)(Nc1nnc(-c2cc(C#N)ccc2F)o1)c1ccc(F)cc1 [4-fluoro-3-(5-(2-(4-fluorophenyl)propan-2-ylamino)-1,3,4-oxadiazol-2-yl)benzonitrile]",D (D=>20 uM)
4,"Cn1c(NC(C)(C)c2ccc(F)cc2)nnc1-c1cc(C(N)=O)ccc1F [4-fluoro-3-(5-(2-(4-fluorophenyl)propan-2-ylamino)-4-methyl-4H-1,2,4-triazol-3-yl)benzamide]",D (D=>20 uM)
5,"Cn1nc(NC2(c3ncccc3F)CCC2)nc1-c1cc(Br)ccc1F [5-(5-bromo-2-fluorophenyl)-N-(1-(3-fluoropyridin-2-yl)cyclobutyl)-1-methyl-1H-1,2,4-triazol-3-amine]",D (D=>20 uM)
6,"Cn1nc(-c2cc(Br)ccc2F)nc1NC1(c2ncccc2F)CCC1 [5-(5-bromo-2-fluorophenyl)-N-(1-(3-fluoropyridin-2-yl)cyclobutyl)-2-methyl-2H-1,2,4-triazol-3-amine]",D (D=>20 uM)
7,"Fc1ccc(Br)cc1-c1nnc(NC2(c3ncccc3F)CCC2)[nH]1 [5-(5-bromo-2-fluorophenyl)-N-(1-(3-fluoropyridin-2-yl)cyclobutyl)-4H-1,2,4-triazol-3-amine]",D (D=>20 uM)
8,"CC(C)(Nc1nnc(-c2cc(Br)ccc2F)o1)c1ccc(F)cc1 [5-(5-bromo-2-fluorophenyl)-N-(2-(4-fluorophenyl)propan-2-yl)-1,3,4-oxadiazol-2-amine]",B (B=1-10 uM)
